The values that follow come from patent US20160046618A1, “Cyclopropyl Fused Thiazin-2-Amine Compounds as Beta-Secretase Inhibitors and Methods of Use” (AMGEN INC., priority 2014, published 2016).

Each structure is given as a SMILES string. Read-outs that look alike come from different tables or passages of the source.

In assay [1] the target is human recombinant BACE2 (Homo sapiens (Human), UniProt Q9Y5Z0). Nature of the assay: In vitro enzymatic BACE2 FRET assay. The format is biochemical. To be noted: BACE2 FRET enzyme assay; read-out: IC50 IP (μM) BACE2 enzyme. As for the experimental part: (§1) These recombinant proteins were further purified using Ni-NTA affinity chromatography (Qiagen). […] This assay is effectively started by the addition of FRET substrate (50 nM) and the combination is incubated for one hour. The FRET assay is terminated by addition of Tris buffer, which raises the pH to neutrality, and the fluorescence is determined. The FRET substrate is a peptide with commercially available fluorophore and quencher, on opposite sides of the BACE cleavage site. Proteolytic cleavage of the FRET substrate releases quenching of fluorescence (excitation 488 nm and emission 590 nm).
human recombinant BACE2, sequence (Q9Y5Z0 63-518): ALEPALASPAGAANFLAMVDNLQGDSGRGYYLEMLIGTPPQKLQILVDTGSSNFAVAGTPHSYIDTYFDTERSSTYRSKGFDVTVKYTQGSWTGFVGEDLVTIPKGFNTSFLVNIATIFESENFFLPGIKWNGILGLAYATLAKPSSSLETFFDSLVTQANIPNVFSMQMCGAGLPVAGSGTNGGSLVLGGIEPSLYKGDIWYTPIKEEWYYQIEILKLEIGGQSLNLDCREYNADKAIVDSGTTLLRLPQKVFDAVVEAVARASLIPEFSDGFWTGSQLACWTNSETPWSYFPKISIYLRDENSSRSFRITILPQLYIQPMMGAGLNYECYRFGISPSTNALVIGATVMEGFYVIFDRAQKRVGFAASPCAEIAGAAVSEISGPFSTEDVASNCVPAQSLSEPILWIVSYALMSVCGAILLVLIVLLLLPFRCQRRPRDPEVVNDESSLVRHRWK

Assay [2] concerns Aβ40 in conditioned medium of cells stably expressing Amyloid Precursor Protein (APP). Nature of the assay: In vitro BACE-1 cell-based assay (Aβ40 sandwich ELISA). To be noted: BACE1 cell-based assay; read-out: IC50 IP (μM) BACE1 cell. The protocol:
In Vitro BACE-1 Cell-Based Assay
The cell-based assay measures inhibition or reduction of Aβ40 in conditioned medium of test compound treated cells expressing amyloid precursor protein. Cells stably expressing Amyloid Precursor Protein (APP) were plated at a density of 40K cells/well in 96 well plates (Costar). The cells were cultivated for 24 hours at 37° C. and 5% CO2 in DMEM supplemented with 10% FBS. The test compounds were then added to cells in 10-point dose response concentrations with the starting concentration being either 100 μM or 10 μM. The compounds were diluted from stock solutions in DMSO and the final DMSO concentration of the test compounds on cells was 0.1%. After 24 h of incubation with the test compounds the supernatant conditioned media was collected and the Aβ40 levels were determined using a sandwich ELISA. The IC50 of the compound was calculated from the percent of control or percent inhibition of Aβ40 as a function of the concentration of the test compound.
The sandwich ELISA to detect Aβ40 was performed in 96 well microtiter plates, which were pre-treated with goat anti-rabbit IgG (Pierce). The capture and detecting antibody pair that were used to detect Aβ40 from cell supernatants were affinity purified pAb40 (Biosource) and biotinylated 6E10 (Signet Labs Inc.), respectively. The optimal concentration for the pAb40 antibody was 3 μg/ml in Superblock/TBS (Pierce) that was supplemented with 0.05% Tween 20 (Sigma). […] Cellular supernatants were incubated with the capture antibody for 3 h at 4° C., followed by 3 wash steps in TBS-tween (0.05%). The detecting antibody incubation was for 2 h at 4° C., again followed by the wash steps as described previously. The final readout of the ELISA is Time-Resolved Fluorescence (counts per minute) using Delfia reagents Streptavidin-Europium and Enhancement solutions (Perkin Elmer) and the Victor 2 multilabel counter (Perkin Elmer).
For orientation: ELISA stands for enzyme-linked immunosorbent assay.

Assay [3] addresses Recombinant Cat D (Homo sapiens (Human), UniProt P07339). Nature of the assay: In vitro enzymatic Cathepsin D (Cat D) FRET assay. The format is biochemical. As for the experimental part: In Vitro Enzymatic Cathepsin D (Cat D) FRET (Fluorescence Resonance Energy Transfer) Assay
Recombinant Cat D was expressed in CHO cells. The assay buffer for CathepsinD is 0.05 M citrate pH 3.5, 10% DMSO final, 5 mM CHAPS. […] The assays are effectively started by the addition of different FRET substrates (20 nM for Cat D) and the combination is incubated for one hour. The FRET assay is terminated with by addition of Tris buffer, which raises the pH to neutrality, and the fluorescence is determined. The FRET substrate is a peptide with commercially available fluorophore and quencher, on opposite sides of the BACE cleavage site. The Cat D substrate peptide sequence is based on sequence #1 of Table 1 from Gulnik et al. FEBS Letters v413 p 379-384 1997. Proteolytic cleavage of the FRET substrate releases quenching of fluorescence (Cat D excitation 500 nm and emission 580 nm).

Assay [4] addresses human recombinant BACE1 (Homo sapiens (Human), UniProt P56817). Nature of the assay: In vitro enzymatic BACE1 FRET assay. It is filed as biochemical. As to conditions: BACE1 FRET enzyme assay; read-out: IC50 IP (μM) BACE1 enzyme. The protocol: as §1
Setting [5] is: Cathepsin D FRET enzyme assay, read-out: IC50 IP (μM) CatD.

One may read the IC50 as the concentration that inhibits the measured activity by half.

human recombinant BACE1, sequence (P56817 46-501): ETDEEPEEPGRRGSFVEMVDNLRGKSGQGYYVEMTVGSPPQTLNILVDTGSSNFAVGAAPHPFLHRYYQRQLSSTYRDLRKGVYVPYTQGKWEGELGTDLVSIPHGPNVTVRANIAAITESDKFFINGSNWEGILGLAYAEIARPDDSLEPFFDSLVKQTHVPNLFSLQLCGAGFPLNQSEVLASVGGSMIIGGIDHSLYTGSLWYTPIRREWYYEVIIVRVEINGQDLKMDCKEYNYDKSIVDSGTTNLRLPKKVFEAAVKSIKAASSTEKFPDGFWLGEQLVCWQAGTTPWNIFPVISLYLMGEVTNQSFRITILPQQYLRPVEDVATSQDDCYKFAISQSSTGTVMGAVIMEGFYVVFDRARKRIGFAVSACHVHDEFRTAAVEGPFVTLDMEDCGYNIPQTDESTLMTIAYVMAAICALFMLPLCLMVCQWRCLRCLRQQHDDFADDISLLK
Recombinant Cat D, sequence (P07339 65-412): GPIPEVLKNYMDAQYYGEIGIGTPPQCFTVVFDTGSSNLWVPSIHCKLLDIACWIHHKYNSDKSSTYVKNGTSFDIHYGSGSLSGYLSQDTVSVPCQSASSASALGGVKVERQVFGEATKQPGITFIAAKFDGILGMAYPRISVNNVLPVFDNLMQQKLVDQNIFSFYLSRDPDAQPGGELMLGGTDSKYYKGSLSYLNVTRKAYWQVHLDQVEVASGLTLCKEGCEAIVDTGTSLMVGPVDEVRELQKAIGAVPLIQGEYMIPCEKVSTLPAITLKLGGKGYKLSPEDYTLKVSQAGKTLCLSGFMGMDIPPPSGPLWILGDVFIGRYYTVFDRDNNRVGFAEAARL

With `Cc1cc(C#N)cnc1C(=O)Nc1ccc(F)c([C@@]2(CF)N=C(N)S[C@H]3C[C@H]32)c1` [Example 3, N-(3-((1S,5S,6S)-3-amino-5-(fluoromethyl)-2-thia-4-azabicyclo[4.1.0]hept-3-en-5-yl)-4-fluorophenyl)-5-cyano-3-methylpicolinamide], the half-inhibitory concentration (IC50) in assay [1] amounted to 0.0108 µM; in assay [2], 0.00522 µM; in assay [3] (setting [5]), 437 µM; in assay [4] it was 0.00838 µM.
Take `C[C@]1(c2cc(Nc3nccc4cc(Cl)cnc34)cc(F)c2F)N=C(N)S[C@@]2(CO)C[C@H]21` [Example 30, ((1S,5S,6S)-3-amino-5-(5-((3-chloro-1,7-naphthyridin-8-yl)amino)-2,3-difluorophenyl)-5-methyl-2-thia-4-azabicyclo[4.1.0]hept-3-en-1-yl)methanol]: the IC50 in assay [1] was under 0.00203 µM; in assay [2] it was 0.00851 µM; in assay [3] (setting [5]), 958 µM; in assay [4], 0.00152 µM.
Turning to `NC1=N[C@](CF)(c2cc(NC(=O)c3ccc(Cl)cn3)cc(F)c2F)[C@@H]2C[C@]2(CO)S1` [Example 31, N-(3-((1S,5S,6S)-3-amino-5-(fluoromethyl)-1-(hydroxymethyl)-2-thia-4-azabicyclo[4.1.0]hept-3-en-5-yl)-4,5-difluorophenyl)-5-chloropicolinamide], the half-maximal inhibitory concentration (IC50) in assay [1] came to 0.00109 µM; in assay [2], 0.00226 µM; in assay [3] (setting [5]), 1400 µM; in assay [4], 0.00206 µM.
In the same order, the values of `C#CCOc1cnc2c(Nc3cc(F)c(F)c([C@@]4(C)N=C(N)S[C@H]5C[C@H]54)c3)nccc2c1` [Example 32, N-(3-((1S,5S,6S)-3-amino-5-methyl-2-thia-4-azabicyclo[4.1.0]hept-3-en-5-yl)-4,5-difluorophenyl)-3-(2-propyn-1-yloxy)-1,7-naphthyridin-8-amine] are 0.304 µM, 0.0836 µM, 138 µM and 0.0212 µM.
As to `C[C@]1(c2cc(Nc3ncnc4cc(Cl)cnc34)cc(F)c2F)N=C(N)S[C@H]2C[C@H]21` [Example 34, N-(3-((1S,5S,6S)-3-amino-5-methyl-2-thia-4-azabicyclo[4.1.0]hept-3-en-5-yl)-4,5-difluorophenyl)-7-chloropyrido[3,2-d]pyrimidin-4-amine], the half-inhibitory concentration (IC50) was determined as 0.0136 µM in assay [1], 0.0317 µM in assay [2], 295 µM in assay [3] (setting [5]) and 0.0198 µM in assay [4].
On to `NC1=N[C@](CF)(c2cc(NC(=O)c3ccc(Cl)cn3)ccc2F)[C@@H]2C[C@]2(CO)S1` [Example 37, N-(3-((1S,5S,6S)-3-amino-5-(fluoromethyl)-1-(hydroxymethyl)-2-thia-4-azabicyclo[4.1.0]hept-3-en-5-yl)-4-fluorophenyl)-5-chloropicolinamide], for which the 50% inhibitory concentration (IC50) in assay [1] was 0.00161 µM; in assay [2], 0.0014 µM; in assay [3] (setting [5]) it was over 400 µM; in assay [4], 0.00332 µM.
In the same order, the values of `COC[C@]12C[C@H]1[C@@](CF)(c1cc(NC(=O)c3ccc(Cl)cn3)ccc1F)N=C(N)S2` [Example 40, N-(3-((1S,5S,6S)-3-amino-5-(fluoromethyl)-1-(methoxymethyl)-2-thia-4-azabicyclo[4.1.0]hept-3-en-5-yl)-4-fluorophenyl)-5-chloro-2-pyridinecarboxamide] are 0.00121 µM, 0.0065 µM, 2810 µM and 0.00553 µM.
Turning to `NC1=N[C@](CF)(c2cc(NC(=O)c3ccc(Cl)cn3)ccc2F)[C@@H]2C[C@]2(CF)S1` [Example 41, N-(3-((1S,5S,6S)-3-amino-1,5-bis(fluoromethyl)-2-thia-4-azabicyclo[4.1.0]hept-3-en-5-yl)-4-fluorophenyl)-5-chloro-2-pyridinecarboxamide], the IC50 in assay [1] was under 0.00203 µM; in assay [2], 0.00596 µM; in assay [3] (setting [5]) it was over 400 µM; in assay [4], 0.00227 µM.
Take `NC1=N[C@](CF)(c2cc(NC(=O)c3ccc(Cl)cn3)ccc2F)[C@H]2C[C@@]2(CO)S1` [Example 42, N-(3-((1R,5S,6R)-3-amino-5-(fluoromethyl)-1-(hydroxymethyl)-2-thia-4-azabicyclo[4.1.0]hept-3-en-5-yl)-4-fluorophenyl)-5-chloro-2-pyridinecarboxamide]: the IC50 in assay [1] is 0.0039 µM; in assay [2], 0.00576 µM; in assay [3] (setting [5]) it was 95.6 µM; in assay [4] it was 0.00601 µM.
For the compound `COC[C@]12C[C@H]1[C@@](CF)(c1cc(NC(=O)c3ccc(Cl)cn3)cc(F)c1F)N=C(N)S2` [Example 43, N-(3-((1S,5S,6S)-3-amino-5-(fluoromethyl)-1-(methoxymethyl)-2-thia-4-azabicyclo[4.1.0]hept-3-en-5-yl)-4,5-difluorophenyl)-5-chloro-2-pyridinecarboxamide], the IC50 in assay [1] is 0.00163 µM; in assay [2] it was 0.00995 µM; in assay [3] (setting [5]), 755 µM; in assay [3] (first procedure (FRET), read-out: Cat D IC50), over 400 µM; in assay [4], 0.00235 µM.
Consider `Cc1cc(C#N)cnc1C(=O)Nc1ccc(F)c([C@@]2(CF)N=C(N)S[C@@]3(CO)C[C@H]32)c1` [Example 44, N-(3-((1S,5S,6S)-3-amino-5-(fluoromethyl)-1-(hydroxymethyl)-2-thia-4-azabicyclo[4.1.0]hept-3-en-5-yl)-4-fluorophenyl)-5-cyano-3-methyl-2-pyridinecarboxamide], for which the concentration for half-maximal inhibition (IC50) in assay [1] is 0.00147 µM; in assay [2], 0.00215 µM; in assay [3] (setting [5]), over 400 µM; in assay [4] it was 0.00255 µM.
On to `COC[C@]12C[C@H]1[C@@](CF)(c1cc(Nc3nccc4cc(C#N)cnc34)cc(F)c1F)N=C(N)S2` [Example 47, 8-((3-((1S,5S,6S)-3-amino-5-(fluoromethyl)-1-(methoxymethyl)-2-thia-4-azabicyclo[4.1.0]hept-3-en-5-yl)-4,5-difluorophenyl)amino)-1,7-naphthyridine-3-carbonitrile], for which the concentration for half-maximal inhibition (IC50) in assay [1] is 0.00187 µM; in assay [2], 0.0162 µM; in assay [3] (setting [5]) it was over 400 µM; in assay [4], 0.00318 µM.
As for `N#Cc1cnc2c(Nc3cc(F)c(F)c([C@@]4(CF)N=C(N)S[C@@]5(CO)C[C@H]54)c3)nccc2c1` [Example 48, 8-((3-((1S,5S,6S)-3-amino-5-(fluoromethyl)-1-(hydroxymethyl)-2-thia-4-azabicyclo[4.1.0]hept-3-en-5-yl)-4,5-fluorophenyl)amino)-7-naphthyridine-3-carbonitrile], the 50% inhibitory concentration (IC50) in assay [1] was 0.00323 µM; in assay [2], 0.0149 µM; in assay [3] (setting [5]), over 400 µM; in assay [4] it was 0.00357 µM.
On to `N#Cc1cnc2c(Nc3ccc(F)c([C@@]4(CF)N=C(N)S[C@@]5(CO)C[C@H]54)c3)nccc2c1` [Example 50, 8-((3-((1S,5S,6S)-3-amino-5-(fluoromethyl)-1-(hydroxymethyl)-2-thia-4-azabicyclo[4.1.0]hept-3-en-5-yl)-4-fluorophenyl)amino)-1,7-naphthyridine-3-carbonitrile], for which the IC50 in assay [1] is 0.00286 µM; in assay [2], 0.00505 µM; in assay [3] (setting [5]), over 133 µM; in assay [4], 0.00225 µM.
With `C#CCOc1cnc(C(=O)Nc2ccc(F)c([C@@]3(CF)N=C(N)S[C@@]4(CO)C[C@H]43)c2)cn1` [Example 53, N-(3-((1S,5S,6S)-3-amino-5-(fluoromethyl)-1-(hydroxymethyl)-2-thia-4-azabicyclo[4.1.0]hept-3-en-5-yl)-4-fluorophenyl)-5-(2-propyn-1-yloxy)-2-pyrazinecarboxamide], the 50% inhibitory concentration (IC50) in assay [1] is 0.0156 µM; in assay [2], 0.00045 µM; in assay [3] (setting [5]) it was 349 µM; in assay [4] it was 0.00045 µM.
